Experimental data taken from patent publication US20080280862A1, “Methods, compositions, and kits for the treatment of pain” (priority 2007, published 2008).

Experiments:
[1] = system: carrageenan-induced pain model in rats; test: Carrageenan pain model, mechanical allodynia by Von Frey filaments; format: in vivo, Sprague-Dawley rats; details: for Mean AUC ± SEM: AUC from 20 minutes through 120 minutes following carrageenan injection
Protocol: The carrageenan model is a fast, reliable model used to assess the ability of analgesics to block inflammatory pain. The analgesic effects of test article combinations on pain generation are assayed using the carrageenan-induced pain model in rats. Adult male Sprague-Dawley rats are administered study drugs intraperitoneally (vehicle, tricyclic compound (TCA), steroid or TCA/Steroid test article combinations) once daily for 2 days (day −2 and day −1) and 30 minutes prior to the carrageenan injection on day 0 (time=0). For the carrageenan injection, animals are lightly anesthetized and 0.1 ml of 2% carrageenan is injected into the plantar surface of the right hind paw. The positive control diclofenac at a dose of 25 mg/kg is administered intraperitoneally immediately before the carrageenan injection. Paw volumes (right and left) are measured using a plathysmometer before drug administration on day −2 and serve as a baseline measurement. The paw volumes are measured again two hours post carrageenan injection. The degree of mechanical allodynia is measured by a blinded observer using Von Frey filaments applied to the plantar surface of the hind paws in an increasing numerical order. Each filament increases the force applied on the paw. The filaments are applied until animal paw withdrawal is achieved. This procedure is carried out before drug administration (day −2), on day −1 and on day 0 at time=0, 20, 40, 60, 80 and 120 minutes post-carrageenan. The force (expressed in grams) required for paw withdrawal after carrageenan injection is subtracted from the force required for paw withdrawal before carrageenan injection. Results are expressed as mean change from baseline across five timepoints post carrageenan injection in Table 4.
For a synergy calculation, experimental data from the carrageenan study are fitted to a median-effect model and used to calculate the parameters' median-effect dose (Dm), slope (m), correlation coefficient (r), combination index (CI) and dose-reduction index (DRI). In addition, the probability of pain inhibition occurring after single-component (nortriptyline) versus the combination drug treatments are calculated from the negative change from baseline data using a Bayesian sensitivity analysis. The likelihood of pain inhibition is characterized for nortriptyline administered alone (1 mg/kg or 3 mg/kg) versus the fixed-dose combination treatments [prednisolone (0.3 mg/kg):nortriptyline (1 mg/kg) or prednisolone (1 mg/kg):nortriptyline (3 mg/kg)] each evaluated at 60 and 80 minutes for analgesic effect.
In another example, the effects of test article combinations on pain inhibition were assayed using the carrageenan model in rodents. Desipramine was tested alone and in combination at 0.3, 1, and 3 mg/kg and prednisolone was tested similarly at 0.3, 1 and 3 mg/kg IP.

[2] = system: acetic acid-induced pain model in mice; test: Acetic acid pain model, writhes; format: in vivo, ICR mice
Protocol: The acetic acid is a reliable fast model for noxious/visceral pain usually used for screening potential drug candidates for their analgesic activity. The effects of test article combinations on pain generation are assayed using the acetic acid-induced pain model in mice. Adult male ICR mice are administered study drugs intraperitoneally (vehicle, TCA, steroid or TCA/Steroid test article combinations) once daily for 2 days (day −2 and day −1) and 30 minutes prior to the acetic acid injection on day 0 (time=0). […] To elicit a pain response, dilute acetic acid (10 ml/kg of 0.6% solution) is injected intraperitoneally into the abdomen. The animal is placed in an observation chamber, and 5 minutes after acetic acid administration, the number of writhes is counted and recorded over a five minute period by a blinded observer. A writhe is considered as a contraction of the abdominal muscles accompanied by an elongation of the body and extension of the hind limb. Results are expressed as number of writhes.

[3] = Experiment One, 3 mg/kg, 20 minutes
[4] = Experiment One, 3 mg/kg, 40 minutes
[5] = Experiment One, 3 mg/kg, 60 minutes
[6] = Experiment One, 3 mg/kg, 80 minutes
[7] = Experiment One, 3 mg/kg, 120 minutes
[8] = Experiment One, 10 mg/kg, 20 minutes
[9] = Experiment One, 10 mg/kg, 40 minutes
[10] = Experiment One, 10 mg/kg, 60 minutes
[11] = Experiment One, 10 mg/kg, 80 minutes
[12] = Experiment One, 10 mg/kg, 120 minutes
[13] = Experiment One, 20 mg/kg, 20 minutes
[14] = Experiment One, 20 mg/kg, 40 minutes
[15] = Experiment One, 20 mg/kg, 60 minutes
[16] = Experiment One, 20 mg/kg, 80 minutes

## C[C@]12C=CC(=O)C=C1CC[C@@H]1[C@@H]2[C@@H](O)C[C@@]2(C)[C@H]1CC[C@]2(O)C(=O)CO [Prednisolone]
[1]; 0.3 mg/Kg
  Mean AUC ± SEM: 2302 ± 634.46
[1]; 1 mg/Kg
  Mean AUC ± SEM: 1583 ± 574.15
[1]; [3]
  Mean change from baseline ± SEM: 1.10 ± 9.30 g
[1]; [4]
  Mean change from baseline ± SEM: -52.01 ± 12.52 g
[1]; [5]
  Mean change from baseline ± SEM: -101.90 ± 15.02 g
[1]; [6]
  Mean change from baseline ± SEM: -159.70 ± 16.77 g
[1]; [7]
  Mean change from baseline ± SEM: -212.90 ± 20.82 g
[1]; [8]
  Mean change from baseline ± SEM: 5.60 ± 6.14 g
[1]; [9]
  Mean change from baseline ± SEM: -44.30 ± 11.47 g
[1]; [10]
  Mean change from baseline ± SEM: -97.50 ± 14.33 g
[1]; [11]
  Mean change from baseline ± SEM: -147.30 ± 16.72 g
[1]; [12]
  Mean change from baseline ± SEM: -193.70 ± 18.07 g
[1]; [13]
  Mean change from baseline ± SEM: -29.40 ± 5.10 g
[1]; [14]
  Mean change from baseline ± SEM: -82.60 ± 5.59 g
[1]; [15]
  Mean change from baseline ± SEM: -135.80 ± 7.21 g
[1]; [16]
  Mean change from baseline ± SEM: -189.00 ± 8.41 g
[1]; Experiment One, 20 mg/kg, 120 minutes
  Mean change from baseline ± SEM: -246.20 ± 12.02 g
[1]; Experiment One, 35 mg/kg, 20 minutes
  Mean change from baseline ± SEM: -13.60 ± 7.52 g
[1]; Experiment One, 35 mg/kg, 40 minutes
  Mean change from baseline ± SEM: -73.60 ± 7.52 g
[1]; Experiment One, 35 mg/kg, 60 minutes
  Mean change from baseline ± SEM: -130.20 ± 7.26 g
[1]; Experiment One, 35 mg/kg, 80 minutes
  Mean change from baseline ± SEM: -176.60 ± 10.69 g
[1]; Experiment One, 35 mg/kg, 120 minutes
  Mean change from baseline ± SEM: -216.20 ± 11.39 g
[1]; Experiment Two, first set of rows, 0.3 mg/kg, 20 minutes
  Mean change from baseline ± SEM: 4.79 ± 7.92 g
[1]; Experiment Two, first set of rows, 0.3 mg/kg, 40 minutes
  Mean change from baseline ± SEM: 16.77 ± 5.63 g
[1]; Experiment Two, first set of rows, 0.3 mg/kg, 60 minutes
  Mean change from baseline ± SEM: 19.7 ± 5.68 g
[1]; Experiment Two, first set of rows, 0.3 mg/kg, 80 minutes
  Mean change from baseline ± SEM: 24.31 ± 6.40 g
[1]; Experiment Two, first set of rows, 0.3 mg/kg, 120 minutes
  Mean change from baseline ± SEM: 25.57 ± 6.79 g
[1]; Experiment Two, first set of rows, 1 mg/kg, 20 minutes
  Mean change from baseline ± SEM: 27.60 ± 5.74 g
[1]; Experiment Two, first set of rows, 1 mg/kg, 40 minutes
  Mean change from baseline ± SEM: 28.64 ± 5.42 g
[1]; Experiment Two, first set of rows, 1 mg/kg, 60 minutes
  Mean change from baseline ± SEM: 25.54 ± 6.04 g
[1]; Experiment Two, first set of rows, 1 mg/kg, 80 minutes
  Mean change from baseline ± SEM: 23.77 ± 6.08 g
[1]; Experiment Two, first set of rows, 1 mg/kg, 120 minutes
  Mean change from baseline ± SEM: 35.14 ± 5.26 g
[1]; Experiment Two, second set of rows, 0.3 mg/kg, 20 minutes
  Mean change from baseline ± SEM: 0.00 ± 7.42 g
[1]; Experiment Two, second set of rows, 0.3 mg/kg, 40 minutes
  Mean change from baseline ± SEM: -4.86 ± 4.86 g
[1]; Experiment Two, second set of rows, 0.3 mg/kg, 60 minutes
  Mean change from baseline ± SEM: 0.00 ± 0.00 g
[1]; Experiment Two, second set of rows, 0.3 mg/kg, 80 minutes
  Mean change from baseline ± SEM: 4.86 ± 4.86 g
[1]; Experiment Two, second set of rows, 0.3 mg/kg, 120 minutes
  Mean change from baseline ± SEM: 31.43 ± 5.54 g
[1]; Experiment Two, second set of rows, 1 mg/kg, 20 minutes
  Mean change from baseline ± SEM: 9.71 ± 6.27 g
[1]; Experiment Two, second set of rows, 1 mg/kg, 40 minutes
  Mean change from baseline ± SEM: 0.00 ± 10.49 g
[1]; Experiment Two, second set of rows, 1 mg/kg, 60 minutes
  Mean change from baseline ± SEM: 16.14 ± 7.73 g
[1]; Experiment Two, second set of rows, 1 mg/kg, 80 minutes
  Mean change from baseline ± SEM: 24.14 ± 7.56 g
[1]; Experiment Two, second set of rows, 1 mg/kg, 120 minutes
  Mean change from baseline ± SEM: 12.86 ± 13.38 g
[1]; median-effect model, prednisolone/nortriptyline 1:3 fixed ratios
  decrease of median-effect dose (Dm) after co-administration compared to the monotherapy: 10 fold
[2]; 1 mg/kg ip
  Mean # of writhes per 5 minutes ± SEM: 8.00 ± 1.70
[2]; 5 mg/kg ip
  Mean # of writhes per 5 minutes ± SEM: 14.43 ± 2.07
[2]; 10 mg/kg ip
  Mean # of writhes per 5 minutes ± SEM: 12.29 ± 3.83
[2]; 35 mg/kg ip
  Mean # of writhes per 5 minutes ± SEM: 11.29 ± 5.22

## CN(C)CCC=C1c2ccccc2CCc2ccccc21 [Amitriptyline]
[1]; Experiment One, 1 mg/kg, 20 minutes
  Mean change from baseline ± SEM: 3.40 ± 3.40 g
[1]; Experiment One, 1 mg/kg, 40 minutes
  Mean change from baseline ± SEM: -49.80 ± 5.19 g
[1]; Experiment One, 1 mg/kg, 60 minutes
  Mean change from baseline ± SEM: -113.80 ± 7.21 g
[1]; Experiment One, 1 mg/kg, 80 minutes
  Mean change from baseline ± SEM: -177.80 ± 10.44 g
[1]; Experiment One, 1 mg/kg, 120 minutes
  Mean change from baseline ± SEM: -231.00 ± 12.33 g
[1]; [3]
  Mean change from baseline ± SEM: 11.40 ± 5.82 g
[1]; [4]
  Mean change from baseline ± SEM: -56.60 ± 9.09 g
[1]; [5]
  Mean change from baseline ± SEM: -120.60 ± 11.72 g
[1]; [6]
  Mean change from baseline ± SEM: -173.80 ± 9.90 g
[1]; [7]
  Mean change from baseline ± SEM: -192.10 ± 10.67 g
[1]; [8]
  Mean change from baseline ± SEM: 11.30 ± 5.83 g
[1]; [9]
  Mean change from baseline ± SEM: -41.90 ± 9.86 g
[1]; [10]
  Mean change from baseline ± SEM: -99.10 ± 11.33 g
[1]; [11]
  Mean change from baseline ± SEM: -148.90 ± 12.63 g
[1]; [12]
  Mean change from baseline ± SEM: -177.70 ± 16.01 g
[1]; [13]
  Mean change from baseline ± SEM: 19.90 ± 6.68 g
[1]; [14]
  Mean change from baseline ± SEM: -33.30 ± 7.80 g
[1]; [15]
  Mean change from baseline ± SEM: -93.30 ± 7.80 g
[1]; [16]
  Mean change from baseline ± SEM: -138.60 ± 6.03 g
[1]; Experiment Two, first set of rows, 3 mg/kg, 20 minutes
  Mean change from baseline ± SEM: -2.20 ± 3.62 g
[1]; Experiment Two, first set of rows, 3 mg/kg, 40 minutes
  Mean change from baseline ± SEM: -6.19 ± 5.21 g
[1]; Experiment Two, first set of rows, 3 mg/kg, 60 minutes
  Mean change from baseline ± SEM: -1.60 ± 3.83 g
[1]; Experiment Two, first set of rows, 3 mg/kg, 80 minutes
  Mean change from baseline ± SEM: 15.70 ± 5.20 g
[1]; Experiment Two, first set of rows, 3 mg/kg, 120 minutes
  Mean change from baseline ± SEM: 26.61 ± 4.90 g
[2]; 1 mg/kg ip
  Mean # of writhes per 5 minutes ± SEM: 8.71 ± 2.44
[2]; 3 mg/kg ip
  Mean # of writhes per 5 minutes ± SEM: 11.62 ± 2.94
[2]; 5 mg/kg ip
  Mean # of writhes per 5 minutes ± SEM: 4.50 ± 2.04
[2]; 10 mg/kg ip
  Mean # of writhes per 5 minutes ± SEM: 0.79 ± 0.79
